# Test results reported in US20170327827A1, “ADIPOCYTE-SPECIFIC CONSTRUCTS AND METHODS FOR INHIBITING PLATELET-TYPE 12 LIPOXYGENASE EXPRESSION” (The Medical Research, Infrastructure, and Health Services …, priority 2006, published 2017).
# “Also recorded” adds a separate entry of the source.
# How the values were obtained:
# Assay type in all cases: cell-based, murine
# [1] = tested on: 3T3-L1 cells; test: Basal cell death of stable 12Lo antisense knockout populations and clones (trypan blue)
# [2] = tested on: 3T3-L1 cells; test: DNA fragmentation (Roche Cell Death Detection ELISA) in stable knockout populations and clones; conditions: 10^−7M
# Procedure: DNA Fragmentation (ELISA method): Apoptopic cells show hallmark random DNA fragmentation between nucleosomes. The “Cell Death Detection ELISA” format by Roche (Mannheim, Germany) was used in the following examples. Culture treatments and controls were performed for the tested period and after counting the cells and washing them twice with PBS, 250,000 cells/aliquot were prepared and stored dry at −180° C. until assay. Multiple replicates were usually prepared for assay together on the same day in the same kit. Assay was carried out exactly as described by the manufacturer on 250,000 cells/aliquot.
# One hallmark of apoptosis is DNA fragmentation. In the current studies the Roche (Mannheim, Germany) version of this assay was used in the format of an ELISA assay, which measures released intact DNA/Histone-nucleosomes. The results are presented as antisense knockout levels normalized to parallel control values. In the experiment shown in FIGS. 10A-10B, populations of 3T3-L1 cells with either of the two 12Lo antisense knockout plasmids (“mp”-pCMV5′mp12Lo(Pst1)-A; “600a”-pcDNAh60012LoA) versus controls (“Con”) were directly compared: cell death versus relative DNA fragmentation.
# To further validate the mechanism of cell death the Roche Cell Death kit was applied as a measure of DNA fragmentation, which is a classic apoptopic hallmark. […]
# [3] = tested on: 3T3-L1 stable cell lines; test: Necrosis by lactate dehydrogenase (LDH) release
# Procedure: Lactate Dehydrogenase Release (LDH): Necrotic cells release their cytoplasmic contents into the surrounding medium. In recent years the measurement of one such stable enzyme, LDH, has become a standard laboratory marker of necrosis (Goeptar et al., 1994; Moran et al., 1996). Cell cultures and treatments tested for LDH release had their supernatants collected, centrifuged (1,100×g, 5 minutes; to remove particulate debris) and supernatants tested automatically in a centralized facility (in-house) by method of Moran and Schnellmann (Moran et al., 1996), 1996. In each study a positive control for LDH release was a 1/5000 dilution of triton X100 directly into the cell culture, for the period of the bioassay. Negative control was medium without cells.
# Cell death can occur as a result of different processes: apoptosis, which is a very programmed process, as well as other less programmed mechanisms such as necrosis. […] In recent years, investigators have been measuring the release of lactate dehydrogenase (LDH) from cells as a measure of cellular necrosis. The contribution of necrosis in the cell death of the 12Lo reduced expressing clones was thus examined by comparing LDH release from control and pCMV600a 12Lo antisense knockout stable preadipocyte cell lines grown in the presence or absence of 12-HETE. In FIG. 15, typical data of such a study is presented.
# [4] = tested on: 3T3-L1 cells; test: G418 selection kill level; conditions: 600 μg/ml G418 over two weeks
# Procedure: 600 μg/ml is enough G418 to kill 100% 3T3-L1 cells over 2 weeks. Thus the levels used clearly distinguish between cells that incorporated G418 resistance (within the expression plasmid used) into their genomes and cells lacking this marker. A few passages after G418 release stable populations should recover and fill the plate.
# The Fugene6 protocol was then used again for preparation of 12Lo antisense knockout and control clones together with the G418 selection marker as G418 resistance was built in to the pCDNA3.1 plasmid (see FIGS. 2A-2D). It was herein determined that 600 μg/ml G418 killed 100% of 3T3-L1 cells over two weeks. So on transfection of cells and selection with 650 μg/ml G418 over three weeks only those cells expressing strong […] resistance would survive and grow. Following three weeks of selection G418 release was gradual over the next 1-2 weeks.
SMILES,effect of added 12-HETE on cell death of 12Lo antisense knockout clones ([1]; 12-HETE 10^−7 M),"effect of 12-HETE on cell survival of control clone ([1]; pCMVCAT stably transfected 3T3-L1 cells, 10^−7M)",effect of 12-HETE on DNA fragmentation levels ([2]; each of the pCMV600a clonal stable lines),DNA fragmentation level on supplemented 12-HETE ([2]; pCMV600a clone 10),effect of 12-HETE on cell necrosis (LDH release) [3],3T3-L1 cells killed [4] [%]
"CCCCC/C=C\C[C@@H](O)/C=C/C=C\C/C=C\CCCC(=O)O [12-HETE, 12 hydroxyeicosatetraenoic acid]",much less cell death; also recorded: encouraged cell survival,no effect,reduced the DNA fragmentation levels,nearly “normal” (or control) levels,no effect,–
CN[C@@H]1[C@@H](O)[C@@H](O[C@@H]2[C@@H](O)[C@H](O[C@H]3O[C@H]([C@@H](C)O)[C@@H](O)[C@H](O)[C@H]3N)[C@@H](N)C[C@H]2N)OC[C@]1(C)O [G418],–,–,–,–,–,100
